pIC50: −log10 of the molar value.

The target of one series is T1, human PDE10A full length (Homo sapiens, UniProt Q9Y233).
T1 construct: purchased Enzo Life Science, Lausen, Switzerland SE-534
As to the kind of experiment: PDE10A Scintillation Proximity Assay (SPA), human PDE10A full length assay. The format is biochemical. The note with it: 50 nM cGMP + 50 nM [3H]-cGMP, 20 minutes at room temperature, read-out: PDE10A inhibition IC50. As to the method:
The following test was carried out in order to determine the activity of the compounds of the present invention. PDE10 activity of the compounds of the present invention was determined using a Scintillation Proximity Assay (SPA)-based method similar to the one previously described (Fawcett, L. et al., Proc Natl Acad Sci USA (2000) 97(7):3702-3707).
The human PDE10A full length assay was performed in 96-well micro titer plates. The reaction mixture of 50 μl contained 20 mM HEPES pH=7.5/10 mM MgCl2/0.05 mg/ml BSA (Sigma cat. #A-7906), 50 nM cGMP (Sigma, cat. #G6129) and 50 nM [^3H]-cGMP (GE Healthcare, cat. #TRK392 S.A. 13.2Ci/mmol), 3.75 ng/well PDE10A enzyme (Enzo Life Science, Lausen, Switzerland cat #SE-534) with or without a specific test compound. A range of concentrations of the potential inhibitor was used to generate data for calculating the concentration of inhibitor resulting in 50% of the effect (e.g. IC50, the concentration of the competitor inhibiting PDE10A activity by 50%). Non-specific activity was tested without the enzyme. The reaction was initiated by the addition of the substrate solution (cGMP and [^3H]-cGMP) and allowed to progress for 20 minutes at room temperature. The reaction was terminated by adding 25 μl of YSi-SPA scintillation beads (GE Healthcare, cat. #RPNQ0150) in 18 mM zinc sulphate solution (stop reagent). After 1 h under shaking, the plate was centrifuged one minute at 170 g to allow beads to settle. Afterwards, radioactive counts were measured on a Perkin Elmer TopCount Scintillation plate reader.

T1 sequence (Q9Y233 1-779 isoform Q9Y233-1): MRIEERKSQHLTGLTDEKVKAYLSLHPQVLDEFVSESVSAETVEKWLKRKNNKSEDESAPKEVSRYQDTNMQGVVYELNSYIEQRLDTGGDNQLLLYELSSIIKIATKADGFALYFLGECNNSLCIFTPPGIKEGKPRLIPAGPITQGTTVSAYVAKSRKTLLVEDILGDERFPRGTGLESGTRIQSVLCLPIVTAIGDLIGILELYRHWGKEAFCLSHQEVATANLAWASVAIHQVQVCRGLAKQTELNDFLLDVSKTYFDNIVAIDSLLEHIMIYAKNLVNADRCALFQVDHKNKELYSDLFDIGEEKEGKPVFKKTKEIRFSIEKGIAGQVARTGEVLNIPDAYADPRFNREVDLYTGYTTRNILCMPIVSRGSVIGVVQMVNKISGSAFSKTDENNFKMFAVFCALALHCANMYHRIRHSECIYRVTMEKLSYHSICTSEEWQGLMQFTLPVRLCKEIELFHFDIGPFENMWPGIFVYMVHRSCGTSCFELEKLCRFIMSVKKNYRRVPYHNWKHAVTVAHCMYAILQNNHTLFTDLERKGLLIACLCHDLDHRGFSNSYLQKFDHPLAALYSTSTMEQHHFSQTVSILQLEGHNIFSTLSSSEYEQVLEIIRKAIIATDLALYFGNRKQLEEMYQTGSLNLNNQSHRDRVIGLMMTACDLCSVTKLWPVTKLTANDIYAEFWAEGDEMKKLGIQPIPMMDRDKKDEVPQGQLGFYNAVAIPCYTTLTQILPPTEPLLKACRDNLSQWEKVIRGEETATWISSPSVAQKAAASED

For orientation: melting point means the temperature, or range, at which the solid turns liquid. In general, pIC50 refers to −log10 of the IC50, conventionally taken in molar units. `Cn1ncc(C(=O)N2C[C@H]3C[C@@H]2CO3)c1C(=O)Nc1ccn2nc(-c3cccnc3)nc2c1` (stereo in doubt) [Example 57, 2-Methyl-4-((1R,4R)-2-oxa-5-aza-bicyclo[2.2.1]heptane-5-carbonyl)-2H-pyrazole-3-carboxylic acid (2-pyridin-3-yl-[1,2,4]triazolo[1,5-a]pyridin-7-yl)-amide] had a melting point of 272 to 273 °C. Besides, the pIC50 on human PDE10A full length is 7.28.
The corresponding values for `COC(=O)c1cnn(C)c1C(=O)Nc1ccn2nc(-c3ccccc3)nc2c1` [Example 1, methyl 1-methyl-5-(2-phenyl-[1,2,4]triazolo[1,5-a]pyridin-7-ylcarbamoyl)-1H-pyrazole-4-carboxylate] are 243 to 247 °C and 7.84.
On the same counts, the results for `Cn1ncc(C(=O)O)c1C(=O)Nc1ccn2nc(-c3ccccc3)nc2c1` [Example 2, 1-Methyl-5-(2-phenyl-[1,2,4]triazolo[1,5-a]pyridin-7-ylcarbamoyl)-1H-pyrazole-4-carboxylic acid] are over 300 °C and 7.60.
Regarding `Cn1ncc(C(=O)N2CCC2)c1C(=O)Nc1ccn2nc(-c3ccccc3)nc2c1` [Example 3, 4-(Azetidine-1-carbonyl)-2-methyl-2H-pyrazole-3-carboxylic acid (2-phenyl-[1,2,4]triazolo[1,5-a]pyridin-7-yl)-amide], the melting point fell in the range of 243 to 245 °C. Also, the pIC50 on human PDE10A full length is 9.15.
On the same counts, the results for `COCCN(C)C(=O)c1cnn(C)c1C(=O)Nc1ccn2nc(-c3ccccc3)nc2c1` [Example 4, N4-(2-methoxyethyl)-N4,1-dimethyl-N5-(2-phenyl-[1,2,4]triazolo[1,5-a]pyridin-7-yl)-1H-pyrazole-4,5-dicarboxamide] are 172 to 175 °C and 9.55.
The corresponding values for `CCN(C)C(=O)c1cnn(C)c1C(=O)Nc1ccn2nc(-c3ccccc3)nc2c1` [Example 5, N4-ethyl-N4,1-dimethyl-N5-(2-phenyl-[1,2,4]triazolo[1,5-a]pyridin-7-yl)-1H-pyrazole-4,5-dicarboxamide] are 193 to 194 °C and 9.30.
As to `CCNC(=O)c1cnn(C)c1C(=O)Nc1ccn2nc(-c3ccccc3)nc2c1` [Example 7, N4-ethyl-1-methyl-N5-(2-phenyl-[1,2,4]triazolo[1,5-a]pyridin-7-yl)-1H-pyrazole-4,5-dicarboxamide], the melting point lay within 253 to 255 °C. In addition, at human PDE10A full length, the pIC50 is 8.79.
On the same counts, the results for `Cn1ncc(C(=O)N2CCC2)c1C(=O)Nc1ccn2nc(N3CCOCC3)nc2c1` [Example 8, 4-(Azetidine-1-carbonyl)-1-methyl-N-(2-morpholino-[1,2,4]triazolo[1,5-a]pyridin-7-yl)-1H-pyrazole-5-carboxamide] are 232 to 234 °C and 8.73.
The corresponding values for `Cc1c(NC(=O)c2c(C(=O)N3CCC3)cnn2C)ccn2nc(-c3ccccc3)nc12` [Example 9, 4-(Azetidine-1-carbonyl)-1-methyl-N-(8-methyl-2-phenyl-[1,2,4]triazolo[1,5-a]pyridin-7-yl)-1H-pyrazole-5-carboxamide] are 243 to 245 °C and 7.79.
On the same counts, the results for `Cc1cn2nc(-c3ccccc3)nc2cc1NC(=O)c1c(C(=O)N2CCC2)cnn1C` [Example 10, 4-(Azetidine-1-carbonyl)-1-methyl-N-(6-methyl-2-phenyl-[1,2,4]triazolo[1,5-a]pyridin-7-yl)-1H-pyrazole-5-carboxamide] are 226 to 228 °C and 9.72.
Regarding `CN(C)C(=O)c1cnn(C)c1C(=O)Nc1ccn2nc(-c3ccccc3)nc2c1` [Example 11, 2-Methyl-2H-pyrazole-3,4-dicarboxylic acid 4-dimethylamide 3-[(2-phenyl-[1,2,4]triazolo[1,5-a]pyridin-7-yl)-amide]], the melting point is over 250 °C. At human PDE10A full length, the pIC50 is 9.05.
The corresponding values for `Cn1ncc(C(=O)N2CCCC2)c1C(=O)Nc1ccn2nc(-c3ccccc3)nc2c1` [Example 13, 1-Methyl-N-(2-phenyl-[1,2,4]triazolo[1,5-a]pyridin-7-yl)-4-(pyrrolidine-1-carbonyl)-1H-pyrazole-5-carboxamide] are 210 to 215 °C and 9.89.
On the same counts, the results for `Cn1ncc(C(=O)N[C@H]2CCOC2)c1C(=O)Nc1ccn2nc(-c3ccccc3)nc2c1` [Example 14, (S)-1-Methyl-N5-(2-phenyl-[1,2,4]triazolo[1,5-a]pyridin-7-yl)-N4-(tetrahydrofuran-3-yl)-1H-pyrazole-4,5-dicarboxamide] are over 250 °C and 7.91.
On the same counts, the results for `Cn1ncc(C(=O)N[C@@H]2CCOC2)c1C(=O)Nc1ccn2nc(-c3ccccc3)nc2c1` [Example 15, (R)-1-Methyl-N5-(2-phenyl-[1,2,4]triazolo[1,5-a]pyridin-7-yl)-N4-(tetrahydrofuran-3-yl)-1H-pyrazole-4,5-dicarboxamide] are over 250 °C and 8.31.
With `COCCCNC(=O)c1cnn(C)c1C(=O)Nc1ccn2nc(-c3ccccc3)nc2c1` [Example 16, N4-(3-Methoxypropyl)-1-methyl-N5-(2-phenyl-[1,2,4]triazolo[1,5-a]pyridin-7-yl)-1H-pyrazole-4,5-dicarboxamide], the melting point is 191 to 193 °C. The pIC50 at human PDE10A full length is 8.63.
In turn, `Cn1ncc(C(=O)NC2COC2)c1C(=O)Nc1ccn2nc(-c3ccccc3)nc2c1` [Example 17, 1-Methyl-N4-(oxetan-3-yl)-N5-(2-phenyl-[1,2,4]triazolo[1,5-a]pyridin-7-yl)-1H-pyrazole-4,5-dicarboxamide] gave a melting point of over 250 °C. Besides, the pIC50 on human PDE10A full length was 7.93.
On the same counts, the results for `CCN(CC)C(=O)c1cnn(C)c1C(=O)Nc1ccn2nc(-c3ccccc3)nc2c1` [Example 18, N4,N4-diethyl-1-methyl-N5-(2-phenyl-[1,2,4]triazolo[1,5-a]pyridin-7-yl)-1H-pyrazole-4,5-dicarboxamide] are 177 to 179 °C and 9.60.
The corresponding values for `CC(C)NC(=O)c1cnn(C)c1C(=O)Nc1ccn2nc(-c3ccccc3)nc2c1` [Example 19, N4-isopropyl-1-methyl-N5-(2-phenyl-[1,2,4]triazolo[1,5-a]pyridin-7-yl)-1H-pyrazole-4,5-dicarboxamide] are over 250 °C and 8.27.
`Cc1ccc(CN(C)C(=O)c2cnn(C)c2C(=O)Nc2ccn3nc(-c4ccccc4)nc3c2)cn1` [Example 20, N4,1-dimethyl-N4-((6-methylpyridin-3-yl)methyl)-N5-(2-phenyl-[1,2,4]triazolo[1,5-a]pyridin-7-yl)-1H-pyrazole-4,5-dicarboxamide] displayed a melting point of 110 to 150 °C. In addition, the negative logarithm of the IC50 (pIC50) on human PDE10A full length is 8.91.
For the compound `Cn1ncc(C(=O)N2CCS(=O)(=O)CC2)c1C(=O)Nc1ccn2nc(-c3ccccc3)nc2c1` [Example 22, 4-(1,1-Dioxo-thiomorpholine-4-carbonyl)-2-methyl-2H-pyrazole-3-carboxylic acid (2-phenyl-[1,2,4]triazolo[1,5-a]pyridin-7-yl)-amide], the melting point is over 250 °C. For the same compound, the negative logarithm of the IC50 (pIC50) on human PDE10A full length is 8.05.
On the same counts, the results for `CNC(=O)c1cnn(C)c1C(=O)Nc1ccn2nc(-c3ccccc3)nc2c1` [Example 23, N4,1-dimethyl-N5-(2-phenyl-[1,2,4]triazolo[1,5-a]pyridin-7-yl)-1H-pyrazole-4,5-dicarboxamide] are over 250 °C and 8.37.
On the same counts, the results for `COC1CN(C(=O)c2cnn(C)c2C(=O)Nc2ccn3nc(-c4ccccc4)nc3c2)C1` [Example 24, 4-(3-Methoxyazetidine-1-carbonyl)-1-methyl-N-(2-phenyl-[1,2,4]triazolo[1,5-a]pyridin-7-yl)-1H-pyrazole-5-carboxamide] are 269 to 270 °C and 7.67.
For `Cn1ncc(C(=O)N2CCOCC2)c1C(=O)Nc1ccn2nc(-c3ccccc3OCCF)nc2c1` [Example 131, 2-Methyl-4-(morpholine-4-carbonyl)-2H-pyrazole-3-carboxylic acid {2-[2-(2-fluoro-ethoxy)-phenyl]-[1,2,4]triazolo[1,5-a]pyridin-7-yl}-amide], on human PDE10A full length, the pIC50 was 9.05.
In the case of `COCCN(C)C(=O)c1cnn(C)c1C(=O)Nc1ccn2nc(-c3ccccc3OCCF)nc2c1` [Example 132, 2-Methyl-2H-pyrazole-3,4-dicarboxylic acid 3-({2-[2-(2-fluoro-ethoxy)-phenyl]-[1,2,4]triazolo[1,5-a]pyridin-7-yl}-amide) 4-[(2-methoxy-ethyl)-methyl-amide]], the negative-log IC50 (pIC50) on human PDE10A full length was 8.99.
The same measure, in the same setting: in the case of `Cn1ncc(C(=O)N2CCOCC2)c1C(=O)Nc1ccn2nc(N3CCCC3=O)nc2c1` [Example 133, Methyl-4-(morpholine-4-carbonyl)-N-(2-(2-oxopyrrolidin-1-yl)-[1,2,4]triazolo[1,5-a]pyridin-7-yl)-1H-pyrazole-5-carboxamide] it was 7.79.
